Data from US4874600A, “No-carrier-added [1^11 c]putrescine” (The United States of America as Represented by the United …, priority 1986, dated 1989).

Experiments:
in vivo = settings: mouse
Procedure: Male Swiss albino mice (BNL strain, 20-32 g) were used in this study. No-carrier-added [1-^11 C]putrescine (0.05-0.20 μCi/mouse of specific activity greater than 1.4 Ci/μmol; 36-140 pmol/mouse) was injected by tail vein into mice and the animals were killed by cervical dislocation at the desired time interval (5, 30 and 60 minutes). The various organs were rapidly removed, blotted free of blood and placed in preweighed counting vials and the vials were sealed. Tissue samples as well as injection standards were counted in a Packard automated sodium iodide well counter. Both percent injected dose per gram of tissue and percent injected dose per organ were determined from the decay corrected activity.

transplanted rat glioma = settings: Volkow et al. 1983, cited from earlier work

For NCCC[11CH2]N [no-carrier-added [1-^11 C]putrescine, [1-^11 C]putrescine], the “accumulation of activity in normal brain compared with other tissues (in words)” value (in vivo) was “less in the normal brain than for other tissues”, the “tissues of main uptake (in words)” value (in vivo) was “taken up by the liver, kidneys, and small intestine” and the tissue uptake at 5 min (in vivo; iv) was 1.37 ± 0.18 %ID/g. The tissue uptake at 0.5 h (in vivo; iv) was 0.82 ± 0.11 %ID/g, the tissue uptake at 1 h (in vivo; iv) was 0.76 ± 0.46 %ID/g and the “Tissue distribution, Brain” value (in vivo; iv, 5 min) was 0.12 ± 0.01 % Dose/Organ. For the same molecule, the “Tissue distribution, Heart” value (in vivo; iv, 5 min) was 0.19 ± 0.04 % Dose/Organ, the “Tissue distribution, Kidney” value (in vivo; iv, 5 min) was 10.5 ± 2.0 % Dose/Organ and the “Tissue distribution, Liver” value (in vivo; iv, 5 min) was 5.96 ± 1.2 % Dose/Organ. For the same molecule, the “Tissue distribution, Lungs” value (in vivo; iv, 5 min) was 0.57 ± 0.08 % Dose/Organ, the “Tissue distribution, Small Intestine” value (in vivo; iv, 5 min) was 13.7 ± 5.0 % Dose/Organ and the “Tissue distribution, Spleen” value (in vivo; iv, 5 min) was 0.57 ± 0.35 % Dose/Organ. For the same molecule, the “Tissue distribution, Brain” value (in vivo; iv, 30 min) was 0.15 ± 0.01 % Dose/Organ, the “Tissue distribution, Heart” value (in vivo; iv, 30 min) was 0.15 ± 0.02 % Dose/Organ and the “Tissue distribution, Kidney” value (in vivo; iv, 30 min) was 2.63 ± 0.36 % Dose/Organ. For the same molecule, the “Tissue distribution, Liver” value (in vivo; iv, 30 min) was 4.85 ± 0.75 % Dose/Organ, the “Tissue distribution, Lungs” value (in vivo; iv, 30 min) was 0.48 ± 0.08 % Dose/Organ and the “Tissue distribution, Small Intestine” value (in vivo; iv, 30 min) was 7.61 ± 2.00 % Dose/Organ. For the same molecule, the “Tissue distribution, Spleen” value (in vivo; iv, 30 min) was 0.56 ± 0.25 % Dose/Organ, the “Tissue distribution, Brain” value (in vivo; iv, 60 min) was 0.13 ± 0.01 % Dose/Organ and the “Tissue distribution, Heart” value (in vivo; iv, 60 min) was 0.12 ± 0.01 % Dose/Organ. The “Tissue distribution, Kidney” value (in vivo; iv, 60 min) was 1.27 ± 0.21 % Dose/Organ, the “Tissue distribution, Liver” value (in vivo; iv, 60 min) was 3.70 ± 0.50 % Dose/Organ and the “Tissue distribution, Lungs” value (in vivo; iv, 60 min) was 0.43 ± 0.08 % Dose/Organ. For the same molecule, the “Tissue distribution, Small Intestine” value (in vivo; iv, 60 min) was 4.40 ± 1.66 % Dose/Organ and the “Tissue distribution, Spleen” value (in vivo; iv, 60 min) was 0.48 ± 0.16 % Dose/Organ.
For NCCCCN [putrescine], the “in vivo uptake into transplanted rat glioma relative to normal brain tissue” value (transplanted rat glioma; transplanted rat glioma vs normal brain tissue) is given as 35 times greater and the “metabolism to spermine by the tumor (in words)” value (transplanted rat glioma; transplanted rat glioma, in contrast to adjacent normal brain tissue) is given as “rapid”.
